pIC50: −log10 of the molar value.
Assays:
[1] = molecular target: T1, Angiotensin II receptor (AT-1) type-1 (Rattus norvegicus, UniProt P29089+P25095); experiment: In vitro displacement of [125I]angiotensin II from rat liver (Angiotensin 1 receptor) membrane preparation
T1 sequence (P29089 whole entry): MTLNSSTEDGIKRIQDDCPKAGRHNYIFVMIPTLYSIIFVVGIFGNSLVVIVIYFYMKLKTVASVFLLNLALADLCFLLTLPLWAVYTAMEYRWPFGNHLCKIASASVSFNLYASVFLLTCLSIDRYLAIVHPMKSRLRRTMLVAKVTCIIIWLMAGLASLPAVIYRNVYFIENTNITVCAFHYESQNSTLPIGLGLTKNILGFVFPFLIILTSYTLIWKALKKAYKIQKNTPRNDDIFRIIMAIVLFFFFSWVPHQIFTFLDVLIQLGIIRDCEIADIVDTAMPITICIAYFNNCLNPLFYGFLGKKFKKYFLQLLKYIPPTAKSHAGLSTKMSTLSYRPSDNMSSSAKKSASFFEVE
T1 sequence (P25095 whole entry): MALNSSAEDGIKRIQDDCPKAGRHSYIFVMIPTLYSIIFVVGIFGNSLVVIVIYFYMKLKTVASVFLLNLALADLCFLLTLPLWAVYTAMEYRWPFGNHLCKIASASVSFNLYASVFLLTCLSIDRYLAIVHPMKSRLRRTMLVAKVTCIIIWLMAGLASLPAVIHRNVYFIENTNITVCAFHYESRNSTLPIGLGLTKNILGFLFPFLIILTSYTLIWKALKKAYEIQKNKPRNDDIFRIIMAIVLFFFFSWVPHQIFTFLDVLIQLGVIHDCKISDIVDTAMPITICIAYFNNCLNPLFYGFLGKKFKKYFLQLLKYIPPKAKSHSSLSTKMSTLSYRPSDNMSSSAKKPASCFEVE

[2] = molecular target: T2, Angiotensin II receptor (Rattus norvegicus) (UniProt P29089+P25095+P35351); experiment: In vivo inhibition of pressor response induced by Angiotensin II (AII) following intravenous administration to pithed rats; assay type: functional, organism-based
T2 sequence (P35351 whole entry, looked up, one chain of several): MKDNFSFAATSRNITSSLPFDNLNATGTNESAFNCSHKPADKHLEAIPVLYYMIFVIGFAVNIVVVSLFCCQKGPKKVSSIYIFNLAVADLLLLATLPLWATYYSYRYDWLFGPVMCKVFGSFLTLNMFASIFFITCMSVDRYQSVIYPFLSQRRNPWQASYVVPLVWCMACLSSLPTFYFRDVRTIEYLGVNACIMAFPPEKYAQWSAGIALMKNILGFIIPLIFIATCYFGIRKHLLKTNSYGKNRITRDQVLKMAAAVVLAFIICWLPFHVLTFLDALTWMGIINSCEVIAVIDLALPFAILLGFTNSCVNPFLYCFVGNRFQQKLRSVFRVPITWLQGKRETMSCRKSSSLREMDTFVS

[3] = molecular target: T2, Angiotensin II receptor (Rattus norvegicus); experiment: In vivo inhibition of pressor response induced by Angiotensin II (AII) following oral administration to pithed rats; assay type: functional, organism-based

IC50 [1]	ID50 [2]	ID50 [3]	pIC50 [1]	Structure (SMILES)
100 pM	0.43 mg/kg			CCCc1nc(SC(F)F)c(C(=O)O)n1Cc1ccc(-c2ccccc2S(=O)(=O)NC(=O)Cc2ccc(F)cc2)cc1
1300 pM	1.84 mg/kg	> 10 mg/kg		CCc1nc(SC)c(C(=O)O)n1Cc1ccc(-c2ccccc2S(=O)(=O)NC(=O)NCC2CCCCC2)cc1
100 pM		1 mg/kg		CCCc1nc(SC)c(C(=O)O)n1Cc1ccc(-c2ccccc2S(=O)(=O)NC(=O)NCc2cccs2)cc1
	0.27 mg/kg	4.9 mg/kg	8.72	CCCCc1nc(SC)c(C(=O)O)n1Cc1ccc(-c2ccccc2S(=O)(=O)NC(=O)NC)cc1
700 pM	0.52 mg/kg			CCCc1nc(SC(F)F)c(C(=O)O)n1Cc1ccc(-c2ccccc2S(=O)(=O)NC(=O)CCCc2ccccc2)cc1
	0.17 mg/kg	1.1 mg/kg	9.70	CCCCc1nc(SC)c(C(=O)O)n1Cc1ccc(-c2ccccc2S(=O)(=O)NC(=O)NCC)cc1
100 pM	1.37 mg/kg			CCc1nc(SC)c(C(=O)O)n1Cc1ccc(-c2ccccc2S(=O)(=O)NC(=O)NCc2ccccc2)cc1
100 pM	0.35 mg/kg			CCCCc1nc(SC)c(C(=O)O)n1Cc1ccc(-c2ccccc2S(=O)(=O)NC(=O)NCC2CCCCC2)cc1
2300 pM	0.52 mg/kg			CCCc1nc(SC)c(C(=O)O)n1Cc1ccc(-c2ccccc2S(=O)(=O)NC(=O)Nc2ccccc2)cc1
200 pM	0.22 mg/kg	1.4 mg/kg		CCCc1nc(SC)c(C(=O)O)n1Cc1ccc(-c2ccccc2S(=O)(=O)NC(=O)NCc2ccccc2)cc1
70 pM	0.22 mg/kg	1.1 mg/kg		CCCc1nc(SC(F)F)c(C(=O)O)n1Cc1ccc(-c2ccccc2S(=O)(=O)NC(=O)CC2CCCCC2)cc1
300 pM	0.8 mg/kg			CCCc1nc(SC(F)F)c(C(=O)O)n1Cc1ccc(-c2ccccc2S(=O)(=O)NC(=O)Cc2ccccc2Cl)cc1
200 pM	0.26 mg/kg	2 mg/kg		CCCc1nc(SC(F)F)c(C(=O)O)n1Cc1ccc(-c2ccccc2S(=O)(=O)NC(=O)Cc2ccccc2)cc1
100 pM	0.3 mg/kg	1.5 mg/kg		CCCc1nc(SC)c(C(=O)O)n1Cc1ccc(-c2ccccc2S(=O)(=O)NC(=O)NCC2CCCCC2)cc1
100 pM	0.64 mg/kg			CCCc1nc(SC(F)F)c(C(=O)O)n1Cc1ccc(-c2ccccc2S(=O)(=O)NC(=O)CCc2ccccc2)cc1
200 pM	0.6 mg/kg	1.7 mg/kg		CCCCc1nc(SC(F)F)c(C(=O)O)n1Cc1ccc(-c2ccccc2S(=O)(=O)NC(=O)CC2CCCCC2)cc1

IC50 [1]	ID50 [2]	ID50 [3]	pIC50 [1]	Structure (SMILES)
100 pM				CCCc1nc(SC(F)F)c(C(=O)O)n1Cc1ccc(-c2ccccc2S(=O)(=O)NC(=O)Cc2ccc3ccccc3c2)cc1
	0.11 mg/kg	0.7 mg/kg	9.30	CCCCc1nc(SC)c(C(=O)O)n1Cc1ccc(-c2ccccc2S(=O)(=O)NC(=O)NCCC)cc1
	0.09 mg/kg	0.2 mg/kg	9.70	CCCCNC(=O)NS(=O)(=O)c1ccccc1-c1ccc(Cn2c(CCCC)nc(SC)c2C(=O)O)cc1
100 pM				CCCCc1nc(SC)c(C(=O)O)n1Cc1ccc(-c2ccccc2S(=O)(=O)NC(=O)NCc2ccccc2)cc1
500 pM				CCCc1nc(SC)c(C(=O)O)n1Cc1ccc(-c2ccccc2S(=O)(=O)NC(=O)NC2CCCCC2)cc1
300 pM				CCCc1nc(SC(F)F)c(C(=O)O)n1Cc1ccc(-c2ccccc2S(=O)(=O)NC(=O)C(C)c2ccccc2)cc1 (configuration not stated)
400 pM				CCCCc1nc(SC)c(C(=O)O)n1Cc1ccc(-c2ccccc2S(=O)(=O)NC(=O)NC(c2ccccc2)c2ccccc2)cc1
70 pM	0.13 mg/kg	3 mg/kg		CCCc1nc(SC(F)F)c(C(=O)O)n1Cc1ccc(-c2ccccc2S(=O)(=O)NC(=O)Cc2cccs2)cc1
100 pM		1 mg/kg		CCCc1nc(SC)c(C(=O)O)n1Cc1ccc(-c2ccccc2S(=O)(=O)NC(=O)NCC2CCCC2)cc1
1000 pM	0.87 mg/kg			CCCc1nc(SC)c(C(=O)O)n1Cc1ccc(-c2ccccc2S(=O)(=O)NC(=O)Nc2ccc(C)cc2)cc1
500 pM	0.09 mg/kg	0.8 mg/kg		CCCCc1nc(SC(F)F)c(C(=O)O)n1Cc1ccc(-c2ccccc2S(=O)(=O)NC(=O)CCC)cc1
150 pM	0.36 mg/kg	2.2 mg/kg		CCCCc1nc(SC(F)F)c(C(=O)O)n1Cc1ccc(-c2ccccc2S(=O)(=O)NC(=O)Cc2ccccc2)cc1
30 pM	0.33 mg/kg	3.1 mg/kg		CCCc1nc(SC(F)F)c(C(=O)O)n1Cc1ccc(-c2ccccc2S(=O)(=O)NC(=O)CCc2cccs2)cc1
1200 pM	5.8 mg/kg			CCCCc1nc(SC)c(C(=O)O)n1Cc1ccc(-c2ccccc2S(=O)(=O)NC(=O)N(c2ccccc2)c2ccccc2)cc1
300 pM	0.35 mg/kg	10 mg/kg		CCCc1nc(SC(F)F)c(C(=O)O)n1Cc1ccc(-c2ccccc2S(=O)(=O)NC(=O)Cc2ccc3c(c2)OCO3)cc1

Source: ChEMBL document CHEMBL1128069, “Balanced AT1 and AT2 angiotensin II antagonists. I. New orally active 5-carboxyl imidazolyl biphenyl sulfonylureas” (Bioorg Med Chem Lett, 1995)
